According to PubChem BioAssay (NCI):
Values joined by “and” are separate entries in the source; they are usually repeats but may differ in a detail not shown here. Equal values may be shown once.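 Each compound was tested at five concentrations against cells in 96-well plates for 48 hours. GI50 is the concentration that inhibits growth by half. TGI: total growth inhibition.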 Where a SMILES comes first, the peptide text is derived from it. [ ]: non-standard residue; d: D form. Orn = NCCC[CH](N)C(=O)O

What was measured:
Experiment in all cases: NCI-60 cell line screen, 48 h
HCT-116 colon = system: HCT-116 colon
HT29 colon = system: HT29 colon
IGROV1 ovarian = system: IGROV1 ovarian
MALME-3M melanoma = system: MALME-3M melanoma
MDA-MB-231 breast = system: MDA-MB-231 breast
NCI-H23 lung = system: NCI-H23 lung
NCI/ADR-RES ovarian = system: NCI/ADR-RES ovarian
SF-539 CNS = system: SF-539 CNS
SK-MEL-2 melanoma = system: SK-MEL-2 melanoma
SR leukemia = system: SR leukemia

Structure (SMILES)	GI50 (HCT-116 colon)	TGI (HCT-116 colon)	GI50 (HT29 colon)	TGI (HT29 colon)	GI50 (IGROV1 ovarian)	TGI (IGROV1 ovarian)	GI50 (MALME-3M melanoma)	TGI (MALME-3M melanoma)	GI50 (MDA-MB-231 breast)	TGI (MDA-MB-231 breast)	GI50 (NCI-H23 lung)	TGI (NCI-H23 lung)	GI50 (NCI/ADR-RES ovarian)	TGI (NCI/ADR-RES ovarian)	GI50 (SF-539 CNS)	TGI (SF-539 CNS)	GI50 (SK-MEL-2 melanoma)	TGI (SK-MEL-2 melanoma)	GI50 (SR leukemia)	TGI (SR leukemia)
C(#Cc1ccccc1C#Cc1ccccn1)c1ccc(OCCCCCCOc2ccc(C#Cc3ccccc3C#Cc3ccccn3)cc2)cc1	6830 nM	15900 nM	8160 nM	14900 nM	5630 nM	17200 nM	7760 nM	16300 nM	2470 nM	9640 nM	6450 nM	16200 nM	2430 nM	18300 nM	1760 nM	7630 nM	1870 nM	11100 nM	2450 nM	19400 nM
C[C@H]1[C@H](C)CC[C@]2(C(=O)O)CC[C@]3(C)C(=CC[C@@H]4[C@@]5(C)CC[C@H](OC(=O)/C=C\c6ccc(O)cc6)C(C)(C)[C@@H]5CC[C@]43C)[C@H]12	1530 nM	3980 nM	4870 nM	19500 nM	15500 nM	> 100000 nM	2510 nM	13200 nM	2550 nM	13500 nM	3480 nM	15900 nM	3020 nM	15000 nM	2900 nM	13500 nM	28900 nM	> 100000 nM	2690 nM	6660 nM
Cc1cc(NC(=O)C(=O)Cc2nc3ccccc3s2)ccc1Cl		> 100000 nM		> 100000 nM		> 100000 nM		> 100000 nM		> 100000 nM		> 100000 nM		> 100000 nM		> 100000 nM		> 100000 nM		> 100000 nM
O=C(Nc1cccc(-n2cc(-c3ccncc3)c(-c3ccc(O)c(Cl)c3)n2)c1)Nc1ccc(Cl)c(C(F)(F)F)c1	2400 nM	8210 nM	3390 nM	11300 nM	2820 nM	8120 nM	2430 nM	7590 nM	1840 nM	7630 nM	2100 nM	6500 nM	2960 nM	9030 nM	1760 nM	5990 nM	2140 nM	4280 nM	1600 nM	5600 nM
Cn1cc(C2=C(c3cccc(NCC(O)CO)c3)C(=O)NC2=O)c2cc(Cl)ccc21 (configuration not stated)	2400 nM	> 25000 nM	2780 nM	11800 nM	5620 nM	15100 nM	7840 nM	14800 nM	5940 nM	15500 nM	4640 nM	13300 nM	12500 nM	> 25000 nM	1780 nM	6900 nM	3580 nM	10000 nM	3030 nM	> 25000 nM
O=C1/C(=c2\c3ccccc3n3c(=O)c4ccccc4nc23)Nc2ccccc21		> 100000 nM		> 100000 nM		> 100000 nM		> 100000 nM		> 100000 nM		> 100000 nM		> 100000 nM		> 100000 nM		> 100000 nM		> 100000 nM
COc1cc([C@@H]2c3cc4c(cc3[C@H](O)[C@H]3COC(=O)[C@@H]23)OCO4)cc(OC)c1OC	406 nM and 185 nM	> 10000 nM	360 nM and 104 nM	> 3940 nM and 1060 nM	423 nM and 240 nM	> 100000 nM	1110 nM and 169 nM	> 100000 nM	776 nM and 454 nM	> 100000 nM	780 nM and 239 nM	> 100000 nM	884 nM and 194 nM	> 10000 nM	256 nM and 94 nM	876 nM and 400 nM	445 nM and 584 nM	> 100000 nM	222 nM	> 10000 nM
CC(C)CC1NC(=O)C(CCCN)NC(=O)C(C(C)C)NC(=O)C2CCCN2C(=O)C(Cc2ccccc2)NC(=O)C(CC(C)C)NC(=O)C(CCCN)NC(=O)C(C(C)C)NC(=O)C2CCCN2C(=O)C(Cc2ccccc2)NC1=O (configuration not stated) (cyclo(FPV[Orn]LFPV[Orn]L); configuration not given here)	10.2 nM and 16.7 nM	122 nM and 213 nM	13.3 nM and 36.3 nM	266 nM and 1220 nM	180 nM and 228 nM	4690 nM and 3750 nM	10.8 nM and 28.6 nM	120 nM and 92.9 nM	20.9 nM and 24.2 nM	146 nM and 87.7 nM	8.35 nM and 19.2 nM	101 nM and 175 nM	614 nM and 2140 nM	5050 nM and 13300 nM	14.6 nM and 47.7 nM	421 nM and 1050 nM	9.39 nM and 24.3 nM	40.4 nM and 89.1 nM	14.8 nM and 36 nM	258 nM and 960 nM
Cc1cc(Cl)ccc1Nc1nc(C(F)(F)F)ccc1C(=O)N/N=C/c1ccc(F)cc1	1400 nM	11100 nM	2830 nM	10300 nM	2110 nM	13900 nM	1110 nM	4700 nM	1470 nM	5940 nM	2570 nM	11500 nM	2270 nM	19200 nM	1960 nM	5670 nM	1840 nM	5820 nM	863 nM	3620 nM
CCN(CC)CCCC(C)Nc1ccnc2cc(Cl)c(SCc3ccccc3)cc12 (configuration not stated)	516 nM	1730 nM	338 nM	1130 nM	1810 nM	4950 nM	1710 nM	3680 nM	1270 nM	2900 nM	1550 nM	3570 nM	1440 nM	3170 nM	626 nM	2040 nM	1640 nM	3220 nM	173 nM	539 nM
CN(C)CCOc1cccc(NC2=C(Cl)C(=O)C(Nc3cccc(OCCN(C)C)c3)=C(Cl)C2=O)c1	180 nM	385 nM	258 nM	666 nM	235 nM	663 nM	275 nM	827 nM	540 nM	1170 nM	323 nM	1350 nM	2440 nM	> 26400 nM	1620 nM	2980 nM	1110 nM	2610 nM	218 nM	783 nM
N=C1N=Nc2nc(C3(c4nc5n(c4O)C(=N)N=N5)Cc4ccccc4C3=O)c(O)n21 (configuration not stated)		> 100000 nM		> 100000 nM	63700 nM	> 100000 nM		> 100000 nM		> 100000 nM		> 100000 nM		> 100000 nM		> 100000 nM	> 100000 nM	> 100000 nM		> 100000 nM
